According to patent US6337351B1, “Pharmaceutical compositions and methods for use” (Targacept, Inc., priority 1998, dated 2002):

Tests used:
dopamine release = assay: Dopamine release; assay type: cell-based; conditions: for Emax: amount released relative to (S)-(-)-nicotine
Description: Determination of Dopamine Release
Dopamine release was measured using the techniques described in U.S. Pat. No. 5,597,919 to Dull et al. Release is expressed as a percentage of release obtained with a concentration of (S)-(−)-nicotine resulting in maximal effects. Reported EC50 values are expressed in nM, and Emax values represent the amount released relative to (S)-(−)-nicotine on a percentage basis.

[1] = target: T1, muscle-type nicotinic acetylcholine receptors (Homo sapiens, UniProt P02708+P07510+Q07001); assay: Interaction with muscle receptors; assay type: cell-based; conditions: at a concentration of 100 uM; relative to maximal activation by (S)-(-)-nicotine
T1 construct: cell preparations expressing muscle-type nicotinic acetylcholine receptors; endogenous in cells
Excerpt: The compounds of the present invention, when employed in effective amounts in accordance with the method of the present invention, lack the ability to elicit activation of nicotinic receptors of human muscle to any significant degree. […] Generally, typical preferred compounds useful in carrying the present invention activate isotopic rubidium ion flux by less than 15 percent, often by less than 5 percent, of that maximally provided by S(−) nicotine.
Determination of Interaction with Muscle Receptors
(§1) The determination of the interaction of the compounds with muscle receptors was carried out in accordance with the techniques described in U.S. Pat. No. 5,597,919 to Dull et al. The maximal activation for individual compounds (Emax) was determined as a percentage of the maximal activation induced by (S)-(−)-nicotine. Reported Emax values represent the amount released relative to (S)-(−)-nicotine on a percentage basis.

[2] = tested on: ganglionic-type nicotinic acetylcholine receptors; assay: Interaction with ganglion receptors; assay type: cell-based; conditions: at a concentration of 100 uM; relative to maximal activation by (S)-(-)-nicotine
Excerpt: By this is meant that a particular dose of compound resulting in prevention and/or treatment of a CNS disorder, is essentially ineffective in eliciting activation of certain ganglionic-type nicotinic receptors. […] As such, such compounds have poor ability to cause isotopic rubidium ion flux through nicotinic receptors in cell preparations derived from the adrenal gland. Generally, typical preferred compounds useful in carrying out the present invention activate isotopic rubidium ion flux by less than 15 percent, often by less than 5 percent, of that maximally provided by S(−) nicotine.
Determination of Interaction with Ganglion Receptors
as §1, with “ganglionic” for “muscle”

CNS nicotinic receptors = CNS nicotinic receptors (Rattus norvegicus, UniProt P09483+P12390); assay: Binding to relevant receptor sites; conditions: inhibition constants calculated from IC50 values by the method of Cheng et al.
Description: Determination of Binding to Relevant Receptor Sites
Binding of the compounds to relevant receptor sites was determined in accordance with the techniques described in U.S. Pat. No. 5,597,919 to Dull et al. Inhibition constants (Ki values), reported in nM, were calculated from the IC50 values using the method of Cheng et al., Biochem, Pharmacol. 22:3099 (1973).

T1 sequence (P02708 21-457): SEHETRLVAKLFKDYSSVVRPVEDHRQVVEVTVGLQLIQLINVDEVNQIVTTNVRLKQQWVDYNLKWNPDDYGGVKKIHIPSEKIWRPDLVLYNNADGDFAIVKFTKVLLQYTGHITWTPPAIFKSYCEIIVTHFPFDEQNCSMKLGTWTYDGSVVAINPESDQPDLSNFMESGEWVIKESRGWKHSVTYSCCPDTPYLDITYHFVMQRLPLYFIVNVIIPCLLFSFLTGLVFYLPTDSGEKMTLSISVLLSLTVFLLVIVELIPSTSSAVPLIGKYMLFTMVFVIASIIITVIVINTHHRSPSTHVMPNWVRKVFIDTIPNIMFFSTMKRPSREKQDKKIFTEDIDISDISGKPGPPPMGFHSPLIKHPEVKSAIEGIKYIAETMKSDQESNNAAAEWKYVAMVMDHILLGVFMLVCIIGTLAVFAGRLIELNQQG
T1 sequence (P11230 24-501 partner): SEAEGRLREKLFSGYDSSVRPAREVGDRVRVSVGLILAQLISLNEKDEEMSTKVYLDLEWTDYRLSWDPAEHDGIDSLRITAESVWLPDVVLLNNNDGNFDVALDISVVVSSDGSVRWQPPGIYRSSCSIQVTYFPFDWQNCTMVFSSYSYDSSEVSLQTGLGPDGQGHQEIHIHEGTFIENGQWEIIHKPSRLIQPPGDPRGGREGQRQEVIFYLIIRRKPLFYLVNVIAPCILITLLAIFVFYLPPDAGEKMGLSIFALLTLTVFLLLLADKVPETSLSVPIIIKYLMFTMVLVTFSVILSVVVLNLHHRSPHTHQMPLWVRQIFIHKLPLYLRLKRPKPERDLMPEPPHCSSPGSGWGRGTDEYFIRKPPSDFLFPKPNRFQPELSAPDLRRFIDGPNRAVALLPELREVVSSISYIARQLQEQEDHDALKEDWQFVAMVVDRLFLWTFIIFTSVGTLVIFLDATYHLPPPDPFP
T1 sequence (Q07001 22-517): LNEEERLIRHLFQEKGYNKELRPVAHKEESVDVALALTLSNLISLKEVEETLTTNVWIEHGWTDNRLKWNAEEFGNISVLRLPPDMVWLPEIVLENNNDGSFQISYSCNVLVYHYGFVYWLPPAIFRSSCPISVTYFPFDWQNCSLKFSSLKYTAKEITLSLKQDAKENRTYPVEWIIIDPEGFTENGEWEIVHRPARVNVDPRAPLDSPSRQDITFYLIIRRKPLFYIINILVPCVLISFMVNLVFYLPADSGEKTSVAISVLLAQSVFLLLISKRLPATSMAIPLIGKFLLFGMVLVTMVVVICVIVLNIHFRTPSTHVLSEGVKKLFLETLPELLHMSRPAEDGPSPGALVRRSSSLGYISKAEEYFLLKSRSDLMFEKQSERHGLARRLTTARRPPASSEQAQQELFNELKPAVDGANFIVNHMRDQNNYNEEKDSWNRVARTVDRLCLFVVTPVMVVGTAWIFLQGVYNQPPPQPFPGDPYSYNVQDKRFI
T1 sequence (P07510 23-517): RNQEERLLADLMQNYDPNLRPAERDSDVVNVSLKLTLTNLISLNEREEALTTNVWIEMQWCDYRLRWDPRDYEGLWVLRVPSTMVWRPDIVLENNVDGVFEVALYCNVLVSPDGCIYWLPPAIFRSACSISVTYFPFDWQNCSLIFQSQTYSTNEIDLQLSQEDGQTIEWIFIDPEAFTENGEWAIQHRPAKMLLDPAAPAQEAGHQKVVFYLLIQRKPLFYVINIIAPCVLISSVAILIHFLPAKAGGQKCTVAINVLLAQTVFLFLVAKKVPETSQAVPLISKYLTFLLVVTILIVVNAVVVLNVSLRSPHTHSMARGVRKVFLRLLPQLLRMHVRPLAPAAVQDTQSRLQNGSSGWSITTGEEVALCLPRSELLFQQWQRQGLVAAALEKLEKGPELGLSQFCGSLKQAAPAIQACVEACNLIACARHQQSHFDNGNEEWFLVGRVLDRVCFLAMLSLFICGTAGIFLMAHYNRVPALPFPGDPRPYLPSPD
CNS nicotinic receptors, sequence (P09483 31-630): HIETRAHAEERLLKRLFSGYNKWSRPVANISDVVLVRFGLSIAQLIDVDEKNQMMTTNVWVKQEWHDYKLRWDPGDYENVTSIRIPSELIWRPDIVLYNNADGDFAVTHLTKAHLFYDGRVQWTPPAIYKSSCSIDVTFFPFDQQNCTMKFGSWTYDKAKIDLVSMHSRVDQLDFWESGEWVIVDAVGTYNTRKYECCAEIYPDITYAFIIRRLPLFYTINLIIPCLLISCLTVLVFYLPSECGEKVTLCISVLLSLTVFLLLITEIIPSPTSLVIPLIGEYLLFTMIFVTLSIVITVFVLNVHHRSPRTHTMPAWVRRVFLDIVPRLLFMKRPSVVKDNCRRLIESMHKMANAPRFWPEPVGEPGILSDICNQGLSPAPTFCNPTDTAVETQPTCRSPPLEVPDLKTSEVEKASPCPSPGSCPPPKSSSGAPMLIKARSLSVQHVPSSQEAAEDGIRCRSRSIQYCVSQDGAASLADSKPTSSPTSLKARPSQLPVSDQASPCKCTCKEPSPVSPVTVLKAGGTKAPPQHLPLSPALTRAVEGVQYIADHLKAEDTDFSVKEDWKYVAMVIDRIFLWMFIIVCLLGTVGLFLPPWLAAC
CNS nicotinic receptors, sequence (P12390 25-500): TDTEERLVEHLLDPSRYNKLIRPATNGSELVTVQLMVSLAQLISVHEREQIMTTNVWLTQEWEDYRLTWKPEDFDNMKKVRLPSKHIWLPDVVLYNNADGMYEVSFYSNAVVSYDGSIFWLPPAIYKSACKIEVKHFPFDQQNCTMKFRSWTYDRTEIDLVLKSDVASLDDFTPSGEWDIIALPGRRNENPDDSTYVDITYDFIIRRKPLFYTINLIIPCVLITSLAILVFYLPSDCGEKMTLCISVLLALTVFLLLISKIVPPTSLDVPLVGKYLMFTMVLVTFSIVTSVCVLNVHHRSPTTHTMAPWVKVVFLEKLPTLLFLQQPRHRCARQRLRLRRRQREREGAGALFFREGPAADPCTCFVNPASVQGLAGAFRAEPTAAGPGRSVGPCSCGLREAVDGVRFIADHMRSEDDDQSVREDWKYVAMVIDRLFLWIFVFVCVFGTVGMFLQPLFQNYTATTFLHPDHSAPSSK

Molecule | EC50 (dopamine release) [µM] | Emax (dopamine release) [%] | Emax at 100 µM [1] [%] | Emax at ganglionic-type receptors [2] [%] | Ki (CNS nicotinic receptors) [µM]
CNCC/C=C/c1cccc(N)c1 [Sample No. 2, (E)-N-methyl-4-(3-aminophenyl)-3-buten-1-amine] | 0.913 | 78 | 7 | 3 | –
(4E)-N-methyl-5-(3-fluorophenyl)-4-penten-2-amine hemigalactarate [Sample No. 6] | – | – | – | – | 5.69
(4E)-N-methyl-5-(3-acetamido-4-methylphenyl)-4-penten-2-amine hemigalactarate [Sample No. 10] | – | – | – | – | 10
NCC/C=C/c1cccc(N)c1 [Sample No. 1, (E)-4-(3-aminophenyl)-3-buten-1-amine] | 12.6 | 74 | 0 | 4 | –
(4E)-N-methyl-5-(4-methyl-3-nitrophenyl)-4-penten-2-amine hemigalactarate [Sample No. 7] | – | – | – | – | 6.44
(4E)-N-methyl-5-(3,4-methylenedioxyphenyl)-4-penten-2-amine hemigalactarate [Sample No. 4] | – | – | – | – | 11.6
CNC(C)C/C=C/c1cccc(N)c1 (centres unmarked) [Sample No. 3, (E)-N-methyl-5-(3-aminophenyl)-4-penten-2-amine] | 0.92 | 78 | 2 | 6 | –
(4E)-N-methyl-5-(3-amino-4-methylphenyl)-4-penten-2-amine hemigalactarate [Sample No. 9] | – | – | – | – | 3.3
